Data on 4 compounds can be found in patent publication US9290461B2, “Crystalline modifications of prothioconazole” (ADAMA MAKHTESHIM LTD, priority 2008, dated 2016).

A short description of data set [1]: Solubility in water, Shake Flask Method (OECD Guideline 105). Type of data set: physicochemical. The following applies: 20° C., buffered at pH 7, Shake Flask Method (OECD Guideline 105). The method, then: The following solubilities were measured in water, 20° C., buffered at pH 7, using the Shake Flask Method (OECD Guideline 105): […]
The conditions of data set [2]: at room temperature; cited from earlier work.

Take `OC(Cc1ccccc1Cl)(Cn1nc[nH]c1=S)C1(Cl)CC1` (racemic) [Form I, 2-[(2RS)-2-(1-chlorocyclopropyl)-3-(2-chlorophenyl)-2-hydroxypropyl]-2H-1,2,4-triazole-3(4H)-thione]: the solubility in water in data set [1] came out at 28 ppm. In data set [2], the “thermodynamic stability of the crystalline form” value is “metastable at room temperature”.
`OC(Cc1ccccc1Cl)(Cn1nc[nH]c1=S)C1(Cl)CC1` (racemic) [Form II, 2-[(2RS)-2-(1-chlorocyclopropyl)-3-(2-chlorophenyl)-2-hydroxypropyl]-2H-1,2,4-triazole-3(4H)-thione]: the solubility in water in data set [1] is on record as 15 ppm. In addition, in data set [2], the “thermodynamic stability of the crystalline form” value is “thermodynamically stable at room temperature”.
For `OC(Cc1ccccc1Cl)(Cn1nc[nH]c1=S)C1(Cl)CC1` (stereo not drawn) [Amorphous, prothioconazole], in data set [1], the solubility in water came out at 34 ppm.
In data set [1], `OC(Cc1ccccc1Cl)(Cn1nc[nH]c1=S)C1(Cl)CC1` (stereo not drawn) [DMSO Solvate, prothioconazole] had a solubility in water of 30 ppm.
